# Assays:
# [1] = tested on: PC-3; experiment: MTT assay, tumor cell growth, PC-3; format: cell-based; settings: 6 days incubation, read-out: ID50 (μM) values for Human Tumor Cell Lines, PC-3
# Experimental: (§1) Effect of Saturated Oligoamines on Human Prostate Tumor Cell Growth by the MTT assay. Saturated oligoamines inhibited prostate cancer cell growth in vitro. DU-145 cells were most sensitive and PC-3 cells were less sensitive to the effects of oligoamines. In general, ID50 values of less than 0.5 μM were obtained (Table 2). Even though the PC-3 cells were relatively more resistant to the oligoamines, at a 5 μM concentration the oligoamines reduced the cell number to less than 1% of the control on day 6 of incubation. Tissue cultures and the MTT assay were performed as follows.
# (§2) Tissue Culture. Cells were seeded into 75 cm^2 culture flasks with 15 ml of Eagle's minimal essential medium supplemented with 10% fetal calf serum and nonessential amino acids. The flasks were incubated in a humidified 95% air/5% CO2 atmosphere. The cells were grown for at least 24 h to ensure that they are in the log phase of growth and then they were treated with the oligoamines. Cells were harvested by treatment for 5 min with STV (saline A, 0.05% trypsin, 0.02% EDTA) at 37° C. The flasks were rapped on the lab bench, pipetted several times and aliquots of cell suspension were withdrawn and counted using a Coulter particle counter that has been standardized for counting each cell line using a hemacytometer.
# (§3) MTT Assay: Trypsinized cell suspensions were diluted to seed 80 μl suspensions containing 500 cells in each well of a 96 well Corning microtiter plate and incubated overnight at 37° C. in a humidified incubator in 5% CO2. 20 μl of appropriately diluted stock solution of each drug were added to the middle 8 columns of cell suspension in the microtiter plates. Each drug concentration was run in quadruplicate. Outer columns of the plates were used for buffer controls. Cells were incubated with the drug for 6 days at 37° C. in 5% CO2/H2O atmosphere. 25 μl of 5 mg/ml solution of 3-(4,5-dimethylthiazol-2-yl)-2,5-diphenyl tetrazolium bromide (MTT) were added to each well and incubated for 4 hours at 37° C. in 5% CO2/H2O incubator. Cells were lysed by incubating overnight with 100 μl lysis buffer (500 ml of the lysis buffer contains: 100 g lauryl sulfate (SDS), 250 ml of N,N-dimethylformamide, and 2 ml of glacial acetic acid, made up to volume with water; pH 4.8).
# (§4) The color was monitored at room temperature at 570 nm in a E-max Precision Microplate Reader (Molecular Devices Corporation, Sunnyvale, Calif.) and data was analyzed using cell survival software supplied by Molecular Devices Corporation.
# [2] = tested on: LnCap; experiment: MTT assay, tumor cell growth, LnCap; format: cell-based; settings: 6 days incubation, read-out: ID50 (μM) values for Human Tumor Cell Lines, LnCap
# Experimental: as §1, §2, §3, §4
# [3] = tested on: DuPro; experiment: MTT assay, tumor cell growth, DuPro; format: cell-based; settings: 6 days incubation, read-out: ID50 (μM) values for Human Tumor Cell Lines, DuPro
# Experimental: as §1, §2, §3, §4
# [4] = tested on: DU145; experiment: MTT assay, tumor cell growth, DU145; format: cell-based; settings: 6 days incubation, read-out: ID50 (μM) values for Human Tumor Cell Lines, DU145
# Experimental: as §1, §2, §3, §4
# [5] = tested on: DuPro Cells; experiment: Cellular polyamine and oligoamine levels, DuPro cells (HPLC); format: cell-based
# Experimental: (§5) Cellular Uptake of Oligoamines. There was considerable uptake of oligoamines by the cancer cell lines; see Table 3A (DuPro cells) and Table 3B (PC-3 cells). […] While not wishing to be limited by any particular theory of operation, the cytotoxicity is likely related to their strong aggregation effect on DNA.
# (§6) Polyamine Analysis. An appropriate number of cells were taken from harvested samples and centrifuged at 1000 rpm at 4° C. for 5 min. The cells were washed twice with chilled Dulbecco's isotonic phosphate buffer (pH 7.4) by centrifugation at 1000 rpm at 4° C. and resuspended in the same buffer. After the final centrifugation, the supernatant was decanted, and […] of 8% sulfosalycilic acid was added to the cell pellet. The cells were sonicated, and the mixture was kept at 4° C. for at least 1 h. After centrifugation at 8000 g for 5 min, the supernatant was removed for analysis. An appropriate volume (50-100 μl) was fluorescence-labeled by derivatizing with dansyl chloride. Labeled polyamines were loaded onto a C-18 high-performance liquid chromatography column and separated by gradient elution with acetonitrile/water at 50° C. Peaks were detected and quantitated using Shimadzu HPLC fluorescence monitor coupled with a Spectra-Physics peak integrator. Because polyamine levels vary with environmental conditions, control cultures were sampled for each experiment.
# [6] = tested on: PC-3 Cells; experiment: Cellular polyamine and oligoamine levels, PC-3 cells (HPLC); format: cell-based
# Experimental: as §5, §6
# [7] = tested on: Calf-thymus DNA; experiment: Calf-thymus DNA aggregation (absorbance at 320 nm); format: biochemical; settings: 50 mM NaCl, 1 mM Na-cacodylate pH 7.0
# Experimental: Calf-thymus DNA aggregation by spermine and oligoamines.
# Test for DNA Aggregation: DNA aggregation was studied using a Perkin-Elmer Lambda 25 UV/visible spectrophotometer connected to a PTP 6 heating unit using a previously published procedure (see Basu, H S and Marton, L J, “The interaction of spermine and pentamines with DNA,” Biochemical Journal 244:243-246 (1987)). Aggregation was determined in 50 mM NaCl, 1 mM Na-cacodylate pH 7.0 buffer by observing the increase in DNA absorbance (approximately 0.5 A260 units) at 320 nm.
# [8] = Day 4 of Treatment, analog conc. 0.8 μM
# [9] = Day 4 of Treatment, analog conc. 1.6 μM
# [10] = Day 6 of Treatment, analog conc. 0.8 μM
# [11] = PC-3, Day 4 of Treatment, analog conc. 1 μM
# [12] = PC-3, Day 4 of Treatment, analog conc. 5 μM
# [13] = PC-3, Day 6 of Treatment, analog conc. 1 μM
IC50 [1],IC50 [2],IC50 [3],IC50 [4],"Polyamine levels, Analog (cellular oligoamine level) [5, 8]","Polyamine levels, Analog (cellular oligoamine level) [5, 9]","Polyamine levels, Analog (cellular oligoamine level) [5, 10]","Polyamine levels, Analog (cellular oligoamine level) [6, 11]","Polyamine levels, Analog (cellular oligoamine level) [6, 12]","Polyamine levels, Analog (cellular oligoamine level) [6, 13]",SMILES,"Polyamine levels, Put [5, 8]","Polyamine levels, Spm [5, 8]","Polyamine levels, Put [5, 9]","Polyamine levels, Put [5, 10]",Conc. (μM) at the start of DNA Aggregation [7],also measured
0.4 µM,0.15 µM,0.55 µM,0.13 µM,0.575 nmoles/10^6 cells,0.775 nmoles/10^6 cells,0.410 nmoles/10^6 cells,0.005 nmoles/10^6 cells,0.011 nmoles/10^6 cells,0.007 nmoles/10^6 cells,CCNCCCCNCCCCNCCCCNCCCCNCCCCNCCCCNCCCCNCC.Cl.Cl.Cl.Cl.Cl.Cl.Cl.Cl [SL-11160],0.430 nmoles/10^6 cells,0.222 nmoles/10^6 cells,0.412 nmoles/10^6 cells,0.675 nmoles/10^6 cells,4.5 µM,"Polyamine levels, Spd [5, 8]: 0.897 nmoles/10^6 cells; Polyamine levels, Spm [5, 9]: 0.195 nmoles/10^6 cells; Polyamine levels, Spd [5, 10]: 1.470 nmoles/10^6 cells; Polyamine levels, Spm [5, 10]: 0.290 nmoles/10^6 cells; Polyamine levels, Spd [6, 11]: 0.097 nmoles/10^6 cells; Polyamine levels, Spm [6, 11]: 0.502 nmoles/10^6 cells; Polyamine levels, Spd [6, 12]: 0.077 nmoles/10^6 cells; Polyamine levels, Spm [6, 12]: 0.525 nmoles/10^6 cells; Polyamine levels, Spd [6, 13]: 0.085 nmoles/10^6 cells; Polyamine levels, Spm [6, 13]: 0.180 nmoles/10^6 cells"
0.5 µM,0.32 µM,0.35 µM,0.24 µM,0.145 nmoles/10^6 cells,0.150 nmoles/10^6 cells,0.023 nmoles/10^6 cells,0.055 nmoles/10^6 cells,0.128 nmoles/10^6 cells,0.08 nmoles/10^6 cells,CCNCCCCNCCCCNCCCCNCCCCNCCCCNCCCCNCCCCNCCCCNCCCCNCCCCNCCCCNCCCCNCCCCNCC.Cl.Cl.Cl.Cl.Cl.Cl.Cl.Cl.Cl.Cl.Cl.Cl.Cl.Cl [SL-11175],0.157 nmoles/10^6 cells,0.050 nmoles/10^6 cells,0.410 nmoles/10^6 cells,0.155 nmoles/10^6 cells,2.0 µM,"Polyamine levels, Put [6, 11]: 0.515 nmoles/10^6 cells; Polyamine levels, Put [6, 12]: 0.519 nmoles/10^6 cells; Polyamine levels, Put [6, 13]: 0.76 nmoles/10^6 cells"
,,,,,,,,,,"NCCCNCCCCNCCCN [Spermine, reference compound]",,,,,88.5 µM,
